Data published in patent US20110152086A1, “Herbicidal Compositions Comprising Flufenacet” (BAYER CROPSCIENCE AG, priority 2009, published 2011).
Read-outs that look alike come from different tables or passages of the source.

Legend:
PAPRH = experiment: Greenhouse trial, PE application on sensitive and resistant biotypes (Table 5); assay type: in vivo; details: for activity, PAPRH resistant: resistant biotype; for activity, PAPRH resistant / activity, PAPRH Sensitive: (A) 90, (B) 1200, iodosulfuron 10 g of AS/ha; for activity, PAPRH Sensitive: sensitive biotype
Protocol: (§1) In the standard design of the test, seeds of various broad-leaved weed and weed grass biotypes (origins) were sown in a 8-13 cm diameter pot filled with natural soil of a standard field soil (loamy silt; non-sterile) and covered with a covering soil layer of about 1 cm. The pots were then cultivated in a greenhouse (12-16 h of light, temperature day 20-22° C., night 15-18° C.) until the time of application. The pots were treated on a laboratory track sprayer with spray liquors comprising the compositions according to the invention, mixtures of the prior art or components used individually. Application of the active compounds or active compound combinations formulated as WG, WP, EC or otherwise was carried out at the appropriate growth stages of the plants. The application rate for the spray application was 100-600 l of water/ha. After the treatment, the plants were returned to the greenhouses.
(§2) About 3 weeks after the application, the soil action or/and foliar action was assessed visually according to a scale of 0-100% in comparison to an untreated comparative group: 0%=no noticeable effect compared to the untreated comparative group; 100%=full effect compared to the untreated comparative group.
(§3) (notes: the term “seeds” also includes vegetative propagation forms such as, for example, rhizome pieces; abbreviations used: h light=hours of illumination, g of AS/ha=gram of active substance per hectare, l/ha=liter per hectare, S=sensitive, R=resistant) • 1. Pre-emergence action against weeds: seeds of various broad-leaved weed and weed grass biotypes (origins) were sown in a 8-13 cm diameter pot filled with natural soil of a standard field soil (loamy silt; non-sterile) and covered with a covering soil layer of about 1 cm. The pots were then cultivated in a greenhouse (12-16 h of light, temperature day 20-22° C., night 15-18° C.) until the time of application. The pots were treated at the BBCH stage 00-10 of the seeds/plants on a laboratory track sprayer with spray liquors comprising the compositions according to the invention, mixtures or components used individually, as WG, WP, EC or other formulations. The application rate for the spray application was 100-600 l of water/ha. After the treatment, the plants were returned to the greenhouses and, when required, treated with fertilizer and watered. • 2. Post-emergence action against weeds: seeds of various broad-leaved weed and weed grass biotypes (origins) were sown in a 8-13 cm diameter pot filled with natural soil of a standard field soil (loamy silt; non-sterile) and covered with a covering soil layer of about 1 cm. The pots were then cultivated in a greenhouse (12-16 h of light, temperature day 20-22° C., night 15-18° C.) until the time of application. The pots were treated at various BBCH stages between 11-25 of the seeds/plants, i.e. generally between two to three weeks after the start of the cultivation, on a laboratory track sprayer with spray liquors comprising the compositions according to the invention, mixtures or components used individually, as WG, WP, EC or other formulations. The application rate for the spray application was 100-600 l of water/ha. After the treatment, the plants were returned to the greenhouses and, when required, treated with fertilizer and watered. • 3. Pre-emergence action against weeds with and without incorporation of active compound: seeds of various broad-leaved weed and weed grass biotypes (origins) were sown in a 8-13 cm diameter pot filled with natural soil of a standard field soil (loamy silt; non-sterile). […]

LOLSS = experiment: as above; assay type: in vivo, Lolium species; details: for activity, LOLSS resistant: resistant biotype; for activity, LOLSS resistant / activity, LOLSS Sensitive: (A) 90, (B) 1200, iodosulfuron 10 g of AS/ha; for activity, LOLSS Sensitive: sensitive biotype
Protocol: as §1, §2, §3

VIOAR [1] = experiment: Greenhouse trial, PO application (Table 2); assay type: in vivo, Viola arvensis; details: (A) 120, (B) 1600 g of AS/ha
Protocol: as §1
as §2, with “group. […]” for “group.”

VIOAR [2] = experiment: Greenhouse trial, PE soil application vs incorporation into the soil (Table 1a); assay type: in vivo, Viola arvensis; details: (A) 90, (B) 1200 g of AS/ha
Protocol: as §1, §2
(§4) (notes: the term “seeds” also includes vegetative propagation forms such as, for example, rhizome pieces; abbreviations used: h light=hours of illumination, g of AS/ha=gram of active substance per hectare, l/ha=liter per hectare, S=sensitive, R=resistant) • 1. Pre-emergence action against weeds: seeds of various broad-leaved weed and weed grass biotypes (origins) were sown in a 8-13 cm diameter pot filled with natural soil of a standard field soil (loamy silt; non-sterile) and covered with a covering soil layer of about 1 cm. The pots were then cultivated in a greenhouse (12-16 h of light, temperature day 20-22° C., night 15-18° C.) until the time of application. The pots were treated at the BBCH stage 00-10 of the seeds/plants on a laboratory track sprayer with spray liquors comprising the compositions according to the invention, mixtures or components used individually, as WG, WP, EC or other formulations. The application rate for the spray application was 100-600 l of water/ha. After the treatment, the plants were returned to the greenhouses and, when required, treated with fertilizer and watered. • 2. Post-emergence action against weeds: seeds of various broad-leaved weed and weed grass biotypes (origins) were sown in a 8-13 cm diameter pot filled with natural soil of a standard field soil (loamy silt; non-sterile) and covered with a covering soil layer of about 1 cm. The pots were then cultivated in a greenhouse (12-16 h of light, temperature day 20-22° C., night 15-18° C.) until the time of application. […]

STEME [3] = experiment: Greenhouse trial, PO application (Table 2); assay type: in vivo, Stellaria media; details: (A) 120, (B) 1600 g of AS/ha
Protocol: as §1
as §2, with “group. […]” for “group.”

STEME [4] = experiment: Greenhouse trial, different sowing depths (Table 6); assay type: in vivo, Stellaria media; details: PE application, (A) 90, (B) 1200 g of AS/ha; for activity, STEME 5 mm: sowing depth 5 mm; for activity, STEME 20 mm: sowing depth 20 mm
Protocol: as §1, §2, §4

LOLPE [5] = experiment: Greenhouse trial, PE application vs application 7 days prior to sowing (Table 3); assay type: in vivo, Lolium perenne; details: (A) 90, (B) 1200 g of AS/ha
Protocol: as §1, §2, §4

APESV = experiment: Greenhouse trial, different sowing depths (Table 6); assay type: in vivo; details: PE application, (A) 90, (B) 1200 g of AS/ha; for activity, APESV 5 mm: sowing depth 5 mm; for activity, APESV 20 mm: sowing depth 20 mm
Protocol: as §1, §2, §4

TRZAS [6] = experiment: Greenhouse trial, application 7 days prior to sowing, crop (Table 3); details: Triticum aestivum (summer wheat), in vivo
Protocol: as §1
as §2, with “group. […]” for “group.”

TRZAS [7] = experiment: Greenhouse trial, PE application with different soil types, crop (Table 4); details: Triticum aestivum (summer wheat), in vivo
Protocol: as §1, §2, §3

TRZAW = experiment: Greenhouse trial, PE application, crop (Table 3); details: Triticum aestivum (winter wheat), in vivo
Protocol: as §1
as §2, with “group. […]” for “group.”

HORVS = experiment: Greenhouse trial, selective PO application (Table 2); details: Hordeum vulgare (summer barley), in vivo
Protocol: as §1
as §2, with “group. […]” for “group.”

LOLPE [8] = experiment: Greenhouse trial, PO application (Table 2); assay type: in vivo, Lolium perenne; details: (A) 120, (B) 1600 g of AS/ha
Protocol: as §1
as §2, with “group. […]” for “group.”

MATCH = experiment: Greenhouse trial, different sowing depths (Table 6); assay type: in vivo, Matricaria chamomilla; details: head prints PO application, (A) 90, (B) 1200 g of AS/ha; for activity, MATCH 5 mm: sowing depth 5 mm; for activity, MATCH 20 mm: sowing depth 20 mm
Protocol: as §1, §2, §4

LOLPE [9] = experiment: Greenhouse trial, PE application with different soil types (Table 4); assay type: in vivo, Lolium perenne; details: (A) 120, (B) 1200 g of AS/ha
Protocol: as §1, §2, §3

VIOAR [10] = experiment: Greenhouse trial, different sowing depths (Table 6); assay type: in vivo, Viola arvensis; details: head prints PO application, (A) 90, (B) 1200 g of AS/ha; for activity, VIOAR 5 mm: sowing depth 5 mm; for activity, VIOAR 20 mm: sowing depth 20 mm
Protocol: as §1, §2, §4

AVEFA = experiment: Greenhouse trial, PE application vs application 7 days prior to sowing (Table 3); assay type: in vivo, Avena fatua; details: (A) 90, (B) 1200 g of AS/ha
Protocol: as §1, §2, §4

POOAN = experiment: as above; assay type: in vivo, Poa annua; details: (A) 90, (B) 1200 g of AS/ha
Protocol: as §1, §2, §4

[11] = Application 7 days prior to sowing

| Compound | Difference resistant to sensitive Δ^D, PAPRH (PAPRH) | activity, PAPRH resistant (PAPRH) | activity, PAPRH Sensitive (PAPRH) | Difference resistant to sensitive Δ^D, LOLSS (LOLSS) | activity, LOLSS resistant (LOLSS) | activity, LOLSS Sensitive (LOLSS) | activity, VIOAR (VIOAR [1]) | activity, VIOAR (VIOAR [2]; Incorporation) | activity, VIOAR (VIOAR [2]; PE application) | activity, STEME (STEME [3]) | activity, STEME 5 mm (STEME [4]) | activity, STEME 20 mm (STEME [4]) | activity, LOLPE (LOLPE [5]; [11]) | activity, LOLPE (LOLPE [5]; PE application) | activity, APESV 5 mm (APESV) | activity, APESV 20 mm (APESV) | activity, TRZAS (TRZAS [6]) | Difference of the soil types Δ^D = A: activity IU/EC73 soil − B: activity IU soil, TRZAS (TRZAS [7]) | activity, TRZAS IU soil (TRZAS [7]) | activity, TRZAS IU/EC73 soil (TRZAS [7]) | also measured |
| --- | --- | --- | --- | --- | --- | --- | --- | --- | --- | --- | --- | --- | --- | --- | --- | --- | --- | --- | --- | --- | --- |
| COc1nc(C)nc(NC(=O)NS(=O)(=O)c2cc(I)ccc2C(=O)O)n1 [(C)^1 iodosulfuron] | Δ^D −40% | 70% | 100% | Δ^D −48% | 50% | 98% |  |  |  |  |  |  |  |  |  |  |  |  |  |  | Difference resistant to sensitive Δ^D, LOLSS (LOLSS; listed as standard product (C)): −48% |
| CC(C)N(C(=O)COc1nnc(C(F)(F)F)s1)c1ccc(F)cc1 [(A) flufenacet, N-(4-fluorophenyl)-N-(1-methylethyl)-2-[[5-(trifluoromethyl)-1,3,4-thiadiazol-2-yl]oxy]acetamide] | Δ^D −15% | 45% | 60% | Δ^D −75% | 10% | 85% | 40% | 0% | 0% | 30% | 0% | 10% | 80% | 90% | 65% | 70% | 60% | Δ^D −33% | 33% | 0% | activity, TRZAW (TRZAW): 30%; activity, HORVS (HORVS): 40%; activity, LOLPE (LOLPE [8]): 65%; activity, MATCH 5 mm (MATCH): 30%; activity, MATCH 20 mm (MATCH): 30%; Difference of the soil types Δ^D = A: activity IU/EC73 soil − B: activity IU soil, LOLPE (LOLPE [9]): Δ^D −22%; activity, LOLPE IU soil (LOLPE [9]): 97%; activity, LOLPE IU/EC73 soil (LOLPE [9]): 75%; activity, VIOAR 5 mm (VIOAR [10]): 50%; activity, VIOAR 20 mm (VIOAR [10]): 10%; activity, AVEFA (AVEFA; [11]): 70%; activity, AVEFA (AVEFA; PE application): 80%; activity, POOAN (POOAN; [11]): 95%; activity, POOAN (POOAN; PE application): 65% |
| CCCN(CCC)C(=O)SCc1ccccc1 [(B) prosulfocarb, S-(phenylmethyl) dipropylcarbamothioate] | Δ^D +20% | 70% | 50% | Δ^D −20% | 65% | 85% | 50% | 0% | 20% | 30% | 60% | 50% | 0% | 80% | 50% | 20% | 10% | Δ^D −5% | 5% | 0% | activity, TRZAW (TRZAW): 35%; activity, HORVS (HORVS): 30%; activity, LOLPE (LOLPE [8]): 60%; activity, MATCH 5 mm (MATCH): 0%; activity, MATCH 20 mm (MATCH): 0%; Difference of the soil types Δ^D = A: activity IU/EC73 soil − B: activity IU soil, LOLPE (LOLPE [9]): Δ^D −33%; activity, LOLPE IU soil (LOLPE [9]): 33%; activity, LOLPE IU/EC73 soil (LOLPE [9]): 0%; activity, VIOAR 5 mm (VIOAR [10]): 60%; activity, VIOAR 20 mm (VIOAR [10]): 20%; activity, AVEFA (AVEFA; [11]): 10%; activity, AVEFA (AVEFA; PE application): 80%; activity, POOAN (POOAN; [11]): 20%; activity, POOAN (POOAN; PE application): 35% |
